In this test the target is recombinant full length HPK-1 enzyme (Homo sapiens (Human), UniProt Q92918). The test is described as follows: HPK-1 biochemical enzyme assay (ADP-Glo kinase inhibition). Conditions: recombinant full length HPK-1 6.8 nM, 10 μM ATP, 12.5 μM MBP, 30 mins at 25° C. The essentials:
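ADP-Glo readout of ADP formed after a 30 min, 25° C. reaction of 6.8 nM full-length HPK-1 with swine myelin basic protein (12.5 μM) and ATP (10 μM) in Tris pH 7.4 buffer with MgCl2, DTT and BSA. Ten compound concentrations tested; percent inhibition set against vehicle (0%) and no-enzyme (100%) controls gave IC50.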

The values below come from patent US20250282794A1 (CURADEV PHARMA LTD, priority 2022, published 2025).

As a reminder, the IC50 is the concentration at which inhibition is half-maximal.

recombinant full length HPK-1 enzyme, sequence (Q92918 whole entry, species assumed): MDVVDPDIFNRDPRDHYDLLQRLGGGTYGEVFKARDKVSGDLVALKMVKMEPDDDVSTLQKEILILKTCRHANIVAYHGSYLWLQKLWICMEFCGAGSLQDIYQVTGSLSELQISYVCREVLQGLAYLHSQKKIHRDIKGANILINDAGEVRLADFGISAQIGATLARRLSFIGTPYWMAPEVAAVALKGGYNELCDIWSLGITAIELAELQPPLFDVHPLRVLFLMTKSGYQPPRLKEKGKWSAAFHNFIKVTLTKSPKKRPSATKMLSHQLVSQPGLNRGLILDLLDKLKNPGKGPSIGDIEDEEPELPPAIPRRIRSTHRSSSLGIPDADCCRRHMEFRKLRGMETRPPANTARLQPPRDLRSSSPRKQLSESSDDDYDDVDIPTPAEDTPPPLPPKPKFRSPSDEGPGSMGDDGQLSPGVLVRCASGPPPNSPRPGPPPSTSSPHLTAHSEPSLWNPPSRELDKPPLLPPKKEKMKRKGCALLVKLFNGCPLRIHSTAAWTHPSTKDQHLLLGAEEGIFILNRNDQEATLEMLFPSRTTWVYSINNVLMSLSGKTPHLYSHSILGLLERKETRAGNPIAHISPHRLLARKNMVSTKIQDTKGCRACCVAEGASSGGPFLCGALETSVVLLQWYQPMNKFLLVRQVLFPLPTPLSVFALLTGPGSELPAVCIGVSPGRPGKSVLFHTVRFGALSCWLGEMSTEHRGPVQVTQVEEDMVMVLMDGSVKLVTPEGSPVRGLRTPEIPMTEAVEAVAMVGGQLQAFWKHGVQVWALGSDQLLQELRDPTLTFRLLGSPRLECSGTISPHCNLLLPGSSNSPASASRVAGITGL

As to `Cc1c(Nc2cc[nH]c(=O)c2C(=O)Nc2ccc3c(c2)OCCO3)cnc2c1NCCO2` [Example 230, N-(2,3-dihydrobenzo[b][1,4]dioxin-6-yl)-4-((8-methyl-2,3-dihydro-1H-pyrido[2,3-b][1,4]oxazin-7-yl)amino)-2-oxo-1,2-dihydropyridine-3-carboxamide], the IC50 was 10 to 100 nM.

As to `Cc1c(Nc2cc[nH]c(=O)c2C(=O)Nc2ccc(S(=O)(=O)NC3CC3)cc2)cnc2c1NCCO2` [Example 231, N-(4-(N-cyclopropylsulfamoyl)phenyl)-4-((8-methyl-2,3-dihydro-1H-pyrido[2,3-b][1,4]oxazin-7-yl)amino)-2-oxo-1,2-dihydropyridine-3-carboxamide], the IC50 lay in the range of 10 to 100 nM. As to `Cc1c(Nc2cc[nH]c(=O)c2C(=O)Nc2ccc(CN3CCS(=O)(=O)CC3)cc2)cnc2c1NCCO2` [Example 232, N-(4-((1,1-dioxidothiomorpholino)methyl)phenyl)-4-((8-methyl-2,3-dihydro-1H-pyrido[2,3-b][1,4]oxazin-7-yl)amino)-2-oxo-1,2-dihydropyridine-3-carboxamide], the concentration for half-maximal inhibition (IC50) is 10 to 100 nM. `Cc1c(Nc2cc[nH]c(=O)c2C(=O)Nc2ccc(Cc3ccncc3)cc2)cnc2c1NCCO2` [Example 233, 4-((8-methyl-2,3-dihydro-1H-pyrido[2,3-b][1,4]oxazin-7-yl)amino)-2-oxo-N-(4-(pyridin-4-ylmethyl)phenyl)-1,2-dihydropyridine-3-carboxamide]: the IC50 lay in the range of 10 to 100 nM.

On to `Cc1c(Nc2cc[nH]c(=O)c2C(=O)Nc2ccc3[nH]ncc3c2)cnc2c1NCCO2` [Example 234, N-(1H-indazol-5-yl)-4-((8-methyl-2,3-dihydro-1H-pyrido[2,3-b][1,4]oxazin-7-yl)amino)-2-oxo-1,2-dihydropyridine-3-carboxamide], for which the IC50 lay within 10 to 100 nM. For the compound `Cc1c(Nc2cc[nH]c(=O)c2C(=O)Nc2ccc(N3CC4CCC3CN4C)cc2)cnc2c1NCCO2` (centres unmarked) [Example 235, 4-((8-methyl-2,3-dihydro-1H-pyrido[2,3-b][1,4]oxazin-7-yl)amino)-N-(4-(5-methyl-2,5-diazabicyclo[2.2.2]octan-2-yl)phenyl)-2-oxo-1,2-dihydropyridine-3-carboxamide], the 50% inhibitory concentration (IC50) is ≤ 10 nM.

`Cc1c(Nc2cc[nH]c(=O)c2C(=O)Nc2ccc(N3C[C@@H]4C[C@H]3CN4C)cc2)cnc2c1NCCO2` [Example 236, 4-((8-methyl-2,3-dihydro-1H-pyrido[2,3-b][1,4]oxazin-7-yl)amino)-N-(4-((1S,4S)-5-methyl-2,5-diazabicyclo[2.2.1]heptan-2-yl)phenyl)-2-oxo-1,2-dihydropyridine-3-carboxamide]: the 50% inhibitory concentration (IC50) was in the range of 10 to 100 nM.

On to `Cc1c(Nc2cc[nH]c(=O)c2C(=O)Nc2ccc3cn[nH]c3c2)cnc2c1NCCO2` [Example 237, N-(1H-indazol-6-yl)-4-((8-methyl-2,3-dihydro-1H-pyrido[2,3-b][1,4]oxazin-7-yl)amino)-2-oxo-1,2-dihydropyridine-3-carboxamide], for which the IC50 is 10 to 100 nM. Regarding `Cc1c(Nc2cc[nH]c(=O)c2C(=O)Nc2ccc(N3CCN(CCC4CNC4)CC3)cc2)cnc2c1NCCO2` [Example 238, N-(4-(4-(2-(azetidin-3-yl)ethyl)piperazin-1-yl)phenyl)-4-((8-methyl-2,3-dihydro-1H-pyrido[2,3-b][1,4]oxazin-7-yl)amino)-2-oxo-1,2-dihydropyridine-3-carboxamide], the half-maximal inhibitory concentration (IC50) was ≤ 10 nM. In the case of `Cc1c(Nc2cc[nH]c(=O)c2C(=O)Nc2ccc3c(c2)N(C)C(=O)CO3)cnc2c1NCCO2` [Example 239, 4-((8-methyl-2,3-dihydro-1H-pyrido[2,3-b][1,4]oxazin-7-yl)amino)-N-(4-methyl-3-oxo-3,4-dihydro-2H-benzo[b][1,4]oxazin-6-yl)-2-oxo-1,2-dihydropyridine-3-carboxamide], the IC50 was 100 to 1000 nM.

For `Cc1c(Nc2cc[nH]c(=O)c2C(=O)Nc2ccc3c(c2)NCCO3)cnc2c1NCCO2` [Example 240, N-(3,4-dihydro-2H-benzo[b][1,4]oxazin-6-yl)-4-((8-methyl-2,3-dihydro-1H-pyrido[2,3-b][1,4]oxazin-7-yl)amino)-2-oxo-1,2-dihydropyridine-3-carboxamide], the IC50 lay in the range of 10 to 100 nM.
